One test concerns the target T1, M4 muscarinic receptor (Homo sapiens, UniProt P08173).
T1 construct: host or cells: Chinese hamster ovary cells
T1 sequence (P08173 1-479): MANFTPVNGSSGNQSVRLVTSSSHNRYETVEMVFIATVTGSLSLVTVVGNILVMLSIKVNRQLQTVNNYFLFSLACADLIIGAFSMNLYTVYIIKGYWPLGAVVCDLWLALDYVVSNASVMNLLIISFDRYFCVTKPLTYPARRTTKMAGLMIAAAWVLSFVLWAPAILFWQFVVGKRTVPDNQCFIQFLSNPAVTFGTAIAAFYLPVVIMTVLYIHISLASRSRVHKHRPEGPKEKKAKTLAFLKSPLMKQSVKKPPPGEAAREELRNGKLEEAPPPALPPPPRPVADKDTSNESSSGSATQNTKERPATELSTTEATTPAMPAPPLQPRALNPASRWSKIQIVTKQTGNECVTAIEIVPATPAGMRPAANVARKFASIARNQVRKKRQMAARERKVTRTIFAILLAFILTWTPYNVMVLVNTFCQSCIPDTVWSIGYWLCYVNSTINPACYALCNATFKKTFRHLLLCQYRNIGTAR
As to the kind of experiment: Accumulation of inositol phosphates in CHO cells. The class given is cell-based. Particulars: M4; ligand 0.1 mM; no carbachol.

The target of test [1] is T2, M1 muscarinic receptor (Homo sapiens, UniProt P11229).
T2 sequence (P11229 1-460): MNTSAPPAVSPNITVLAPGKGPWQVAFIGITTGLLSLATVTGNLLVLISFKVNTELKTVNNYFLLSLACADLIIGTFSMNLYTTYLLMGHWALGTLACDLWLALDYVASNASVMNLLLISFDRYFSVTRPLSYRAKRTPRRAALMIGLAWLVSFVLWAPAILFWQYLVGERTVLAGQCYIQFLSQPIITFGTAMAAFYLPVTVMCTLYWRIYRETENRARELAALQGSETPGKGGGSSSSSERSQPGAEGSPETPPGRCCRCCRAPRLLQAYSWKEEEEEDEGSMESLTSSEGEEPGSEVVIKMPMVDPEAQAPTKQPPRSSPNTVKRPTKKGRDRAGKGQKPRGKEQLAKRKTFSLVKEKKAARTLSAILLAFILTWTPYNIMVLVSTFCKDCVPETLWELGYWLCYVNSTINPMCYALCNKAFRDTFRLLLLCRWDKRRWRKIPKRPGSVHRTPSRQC
As to the kind of experiment: Accumulation of inositol phosphates in CHO cells. It counts as cell-based. As to conditions: ligand 0.1 mM, no carbachol.
Method: (§1) Chinese hamster ovary cells stably transfected with the genes of human variants of muscarinic receptors were purchased from Missouri S&T cDNA Resource Center (Rolla, Mo., USA). […] Cells were grown to confluency in 75 cm^2 flasks in Dulbecco's modified Eagle's medium supplemented with 10% fetal bovine serum and 2 million of cells were subcultured to 100 mm Petri dishes. Medium was supplemented with 5 mM butyrate for the last 24 hours of cultivation to increase receptor expression.
(§2) Inositolphosphates formation was determined in cells pre-labeled overnight by 0.5 μM [^3H]myo-inositol in 0.3 mL of DMEM (3 μCi/ml) at 37° C. […] Incubation was stopped by removal of incubation buffer and addition 0.2 mL 20% trichloracetic acid (TCA). After 1 h incubation at 4° C., 100 μL, of TCA extracts were taken for measurement. Rest of the TCA was removed, and TCA precipitates were washed with 200 μL TCA and dissolved in 200 μL of 1 M NaOH. After 1 h incubation at 4° C., 100 μL, of NaOH lysates were taken for measurement. Radioactivity in TCA extracts and NaOH lysates were determined by liquid scintillation counting. The rate of inositolphosphates accumulation was calculated as a percentage of the soluble (released) inositolphosphates from the total incorporated radioactivity (sum of radioactivity in NaOH lysates and TCA extracts).
(§3) EC50 values are expressed as negative logarithms and EMAX values as folds over basal, Table 7.

The target of test [2] is T2, M1 muscarinic receptor. As to the kind of experiment: biochemical. It counts as binding. Particulars: competition with [^3H]QNB.
The subject of test [3] is M1-M5 muscarinic receptors. The test can be described thus: Competition with [3H]NMS, statements over all subtypes. The class given is binding, human. As to conditions: competition experiments, all M1-M5.
The target of a further test is T3, M5 muscarinic receptor (Homo sapiens, UniProt P08912).
T3 construct: host or cells: CHO (Chinese hamster ovary) cells, stably transfected
T3 sequence (P08912 1-532): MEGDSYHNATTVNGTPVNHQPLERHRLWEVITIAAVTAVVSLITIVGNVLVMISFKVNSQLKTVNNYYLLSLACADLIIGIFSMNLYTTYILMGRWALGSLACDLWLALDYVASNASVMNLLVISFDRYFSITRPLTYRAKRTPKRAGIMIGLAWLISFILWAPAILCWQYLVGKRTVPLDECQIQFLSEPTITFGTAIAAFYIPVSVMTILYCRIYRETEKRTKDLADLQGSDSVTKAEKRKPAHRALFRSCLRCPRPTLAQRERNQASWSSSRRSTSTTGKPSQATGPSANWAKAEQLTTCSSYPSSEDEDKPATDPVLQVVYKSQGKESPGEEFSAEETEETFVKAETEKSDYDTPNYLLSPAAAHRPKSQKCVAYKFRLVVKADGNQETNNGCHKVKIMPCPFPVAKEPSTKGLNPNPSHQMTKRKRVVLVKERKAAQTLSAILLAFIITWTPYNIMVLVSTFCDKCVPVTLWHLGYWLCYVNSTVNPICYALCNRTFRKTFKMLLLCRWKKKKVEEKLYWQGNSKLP
The test can be described thus: biochemical. The class given is binding. As to conditions: competition with [^3H]QNB.

Like-named read-outs stand apart in the source and are kept apart here.

For orientation: Ki means the equilibrium dissociation constant of an inhibitor or competing ligand from its target. A high value points to weaker binding. Broadly, the IC50 is the concentration that gives 50% inhibition.

Method for M4 muscarinic receptor: as §1, §2, §3

Turning to `CCCCOc1ccc(C(=O)OCC[N+]2(C)CCCCC2)cc1.[I-]` [JB-D4, 2-(N-piperidineethyl) p-butoxybenzoate N-methyl iodide], the “Effect of ligands on basal activity (accumulation of inositol phosphates as percent of accumulation in the absence of the ligand)” value on M4 muscarinic receptor is 98 ± 4%; at M1 muscarinic receptor [1] it was 97 ± 2%. Moreover, the figures for the inhibition constant (Ki) at M1 muscarinic receptor [2] (M1) and at M5 muscarinic receptor (M5) were 1.04 µM and 0.827 µM, respectively. Besides, the IC50 on M1 muscarinic receptor [2] (M1, average of 3, read-out: avg IC50) was found to be 8.78 µM; on M1 muscarinic receptor [2] (M1, experiment 1, read-out: IC50—1) it was 8.72 µM; at M1 muscarinic receptor [2] (M1, experiment 2, read-out: IC50—2), 9.42 µM; at M1 muscarinic receptor [2] (M1, experiment 3, read-out: IC50—3), 8.19 µM; on M5 muscarinic receptor (M5, average of 3, read-out: avg IC50), 6.61 µM; on M5 muscarinic receptor (M5, experiment 1, read-out: IC50—1), 5.73 µM. Besides, the half-maximal inhibitory concentration (IC50) at M5 muscarinic receptor (M5, experiment 2, read-out: IC50—2) amounted to 6.76 µM; at M5 muscarinic receptor (M5, experiment 3, read-out: IC50—3) it was 7.34 µM. The “inhibition of [^3H]NMS binding” value in test [3] was “fully inhibit”.

For the origin of these results see patent US9662318B2, “Bitopic muscarinic agonists and antagonists and methods of synthesis and use thereof” (BARRY UNIVERSITY, INC., priority 2012, dated 2017).
